melting point: 110 °C
SMILES: CCC(CCCN1CCC(NC(=O)c2ccccc2-c2ccc(C(F)(F)F)cc2)CC1)(CC(=O)OC)c1ccccc1 (stereo not shown) [Example 2, Methyl 2-ethyl-2-phenyl-5-{4-[(4′-trifluoromethyl-biphenyl-2-carbonyl)-amino]-piperidin-1-yl}-pentanecarboxylate]
